Source: US9303062B2, “Solid oxidized glutathione salt and method for producing same” (priority 2011, dated 2016)

How the values were obtained:
[1] = Solubility in water at 25° C. under normal pressure; assay type: physicochemical; details: supernatant by HPLC
Experimental: The solubility of the solid oxidized glutathione salt of the present invention in water at temperature of 25° C. can be calculated according to the following formula, and the solubility is, for example, 10 mass % or more, preferably 20 mass % or more, and more preferably 30 mass % or more.
Solubility (%)=mass of dissolved oxidized glutathione/(mass of water+mass of dissolved oxidized glutathione)×100
Evaluation 1: Solubility in water at 25° C. under normal pressure and deliquescency of oxidized glutathione salt
Each of the powders of the solid-state oxidized glutathione salt obtained in the above respective Examples was dissolved in water until the powder was not further dissolved. After each slurry was stirred for 30 minutes or longer, the supernatant was obtained and the concentrations of each oxidized glutathione and salt were calculated using HPLC. For comparison, the solubilities of the following conventionally known solid oxidized glutathiones were investigated in the same manner as the above.

[2] = Deliquescency of powder at 25° C., normal pressure, 75% RH, observed with naked eyes; assay type: physicochemical; details: relative humidity 75% RH
Experimental: The solid oxidized glutathione salt obtained as described above has low deliquescency and high water solubility. The deliquescency of the solid oxidized glutathione can be evaluated by allowing a powder of the salt to stand in an environment at a temperature of 25° C., normal pressure, e.g. 1 atmospheric pressure, and a relative humidity of 75% RH, and observing whether deliquescence starts or not with naked eyes.
Each of the powders of the solid-state oxidized glutathione salt obtained in the above respective Examples was allowed to stand in atmospheric condition of a temperature of 25° C., normal pressure and a relative humidity of 75% RH. After 2 hours or 24 hours, it was determined whether or not deliquescence was is present by observing the occurrence of shape change with naked eyes. For comparison, the deliquescencies of the above commercially available solid oxidized glutathiones were investigated in the same manner.

Substance | Solubility [1] [mass %] | Deliquescency 2 hours ([2]; after 2 hours) | Deliquescency 24 hours ([2]; after 24 hours)
oxidized glutathione monoammonium salt [Example 2] | 34.8 | – | –
oxidized glutathione hemicalcium salt [Example 6] | 58 | no | no
